Reference: patent US11149022B2, “Antagonists of the muscarinic acetylcholine receptor M4” (Vanderbilt University, priority 2017, dated 2021)

Molecular target: T1, Human M4 (Homo sapiens, UniProt P08173)
T1 construct: expressed in transfected cells; host or cells: CHO-K1 (ATCC), stably co-expressing chimeric G protein Gqi5
T1 sequence (P08173 1-479): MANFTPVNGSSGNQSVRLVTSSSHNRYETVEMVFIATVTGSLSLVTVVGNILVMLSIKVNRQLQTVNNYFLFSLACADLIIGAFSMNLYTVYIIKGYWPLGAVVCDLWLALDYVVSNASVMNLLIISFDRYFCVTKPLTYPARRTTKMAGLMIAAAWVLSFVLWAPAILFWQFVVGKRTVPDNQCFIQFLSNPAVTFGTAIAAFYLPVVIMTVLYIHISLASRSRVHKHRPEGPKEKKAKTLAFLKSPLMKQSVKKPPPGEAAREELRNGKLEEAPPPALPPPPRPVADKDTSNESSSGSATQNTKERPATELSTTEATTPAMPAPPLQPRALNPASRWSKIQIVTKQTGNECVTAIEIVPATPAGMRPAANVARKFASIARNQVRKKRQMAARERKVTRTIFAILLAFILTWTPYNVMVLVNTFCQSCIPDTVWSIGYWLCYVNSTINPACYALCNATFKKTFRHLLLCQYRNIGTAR
Assay: mAChR M4 cell-based functional assay (calcium flux, antagonist mode)
Settings: for remaining activity at 30 µM: % ACh maximum at 30 μM, read-out: Emin; for IC50: M4/Gqi5/CHO-K1 cells, concentration-dependent decrease of the EC80 acetylcholine response
Method: Human or rat M4 cDNA, along with the chimeric G protein Gqi5, were transfected into Chinese hamster ovary (CHO-K1) cells purchased from the American Type Culture Collection using Lipofectamine2000. M4/Gqi5/CHO cells were grown in Ham's F-12 medium containing 10% heat-inactivated fetal bovine serum (FBS), 20 mM HEPES, 500 μg/mL G418 sulfate, and 200 μg/mL Hygromycin B.
For high throughput measurement of agonist-evoked increases in intracellular calcium, CHO-K1 cells stably expressing muscarinic receptors were plated in growth medium lacking G418 and hygromycin at 15,000 cells/20 μL/well in Greiner 384-well black-walled, tissue culture (TC)-treated, clear-bottom plates (VWR). Cells were incubated overnight at 37° C. and 5% CO2. The next day, cells were washed using an ELX 405 (BioTek) with assay buffer; the final volume was then aspirated to 20 μL, Next, 20 μL of a 2.3 μM stock of Fluo-4/acetoxymethyl ester (Invitrogen, Carlsbad, Calif.), prepared as a 2.3 μM stock in DMSO, mixed in a 1:1 ratio with 10% (w/v) Pluronic F-127 and diluted in assay buffer, was added to the wells and the cell plates were incubated for 50 min at 37° C. and 5% CO2. Dye was removed by washing with the ELX 405 and the final volume was aspirated to […]. Compound master plates were formatted in a 10 point concentration-response curve (CRC) format (1:3 dilutions) in 100% DMSO with a starting concentration of 10 or 1 mM using a BRAVO liquid handler (Agilent). Test compound CRCs were then transferred to daughter plates (240 nL) using the Echo acoustic plate reformatter (Labcyte, Sunnyvale, Calif.) and then diluted into assay buffer (40 μL) to a 2× stock using a Thermo Fisher Combi (Thermo Fisher Scientific, Waltham, Mass.).
Calcium flux was measured using the Functional Drug Screening System (FDSS) 6000 or 7000 (Hamamatsu Corporation, Tokyo, Japan) as an increase in the fluorescent static ratio. Compounds were applied to cells (20 μL, 2×) using the automated system of the FDSS at 2 seconds into the protocol and the data were collected at 1 Hz. At 143 s, 10 μL of an EC20 concentration of the muscarinic receptor agonist acetylcholine was added (5×), followed by the addition of 12 μL of an EC80 concentration of acetylcholine at the 268 s time point (5×). Agonist activity was analyzed as a concentration-dependent increase in calcium mobilization upon compound addition. Positive allosteric modulator activity was analyzed as a concentration-dependent increase in the EC20 acetylcholine response. Antagonist activity was analyzed as a concentration-dependent decrease in the EC80 acetylcholine response; for the purposes of the tables herein, an […] (inhibitory concentration 50) was calculated as a concentration-dependent decrease of the response elicited by an EC80 concentration of acetylcholine. Concentration-response curves were generated using a four-parameter logistical equation in XLFit curve fitting software (IDBS, Bridgewater, N.J.) for Excel (Microsoft, Redmond, Wash.) or Prism (GraphPad Software, Inc., San Diego, Calif.) or the Dotmatics software platform (Dotmatics, Bishop's Stortford, UK).
Compounds were synthesized as described above. Activity (IC50 and Emin) was determined in the mAChR M4 cell-based functional assay as described above and the data are shown in Table 4.

Structure (SMILES)	remaining activity at 30 µM	IC50
Cc1nn(C)cc1-c1ccc(OC2CC3(CCN(CC4CC5C=CC4C5)CC3)C2)nn1 (stereo not shown) [Compound 24, 7-(5-bicyclo[2,2.1]hept-2-enylmethyl)-2-[6-(1,3-dimethylpyrazol-4-yl)pyridazin-3-yl]oxy-7-azaspiro[3.5]nonane]	2.76%	110 nM
Cc1nn(C)cc1-c1ccc(OC2CC3(CCN(CC(C)C(C)(C)C)CC3)C2)nn1 (stereo not shown) [Compound 25, 2-[6-(1,3-dimethylpyrazol-4-yl)pyridazin-3-yl]oxy-7-(2,3,3-triniethylbutyl)-7-azaspiro[3.5]nonane]	3.1%	210 nM
Cc1nn(C)cc1-c1ccc(OC2CC3(CCN(CC4CCCCC4)CC3)C2)nn1 [Compound 26, 7-(cyclohexylmethyl)-2-[6-(1,3-dimethylpyrazol-4-yl)pyridazin-3-yl]oxy-7-azaspiro[3.5]nonane]	4.43%	630 nM
Cc1nn(C)cc1-c1ccc(OC2CC3(CCN(CC4CCOCC4)CC3)C2)nn1 [Compound 27, 2-[6-(1,3-dimethylpyrazol-4-yl)pyridazin-3-yl]oxy-7-(tetrahydropyran-4-ylmethyl)-7-azaspiro[3.5]nonane]	11.6%	4430 nM
Cc1nn(C)cc1-c1ccc(OC2CC3(CCN(CC4CCCOC4)CC3)C2)nn1 (stereo not shown) [Compound 28, 2-[6-(1,3-dimethylpyrazol-4-yl)pyridazin-3-yl]oxy-7-(tetrahydropyran-3-ylmethyl)-7-azaspiro[3.5]nonane]	17.1%	5810 nM
Cc1nn(C)cc1-c1ccc(OC2CC3(CCN(CC4CCSCC4)CC3)C2)nn1 [Compound 29, 2-[6-(1,3-dimethylpyrazol-4-yl)pyridazin-3-yl]oxy-7-(tetrahydrothiopyran-4-ylmethyl)-7-azaspiro[3.5]nonane]	5.29%	1170 nM
Cc1nn(C)cc1-c1ccc(OC2CC3(CCN(Cc4ccccc4)CC3)C2)nn1 [Compound 30, 7-benzyl-2-[6-(1,3-dimethylpyrazol-4-yl)pyridazin-3-yl]oxy-7-azaspiro[3.5]nonane]	5.31%	1630 nM
Cc1cccnc1CN1CCC2(CC1)CC(Oc1ccc(-c3cn(C)nc3C)nn1)C2 [Compound 31, 2-[6-(1,3-dimethylpyrazol-4-yl)pyridazin-3-yl]oxy-7-[(3-methyl-2-pyridyl)methyl]-7-azaspiro[3.5]nonane]	8.05%	2670 nM
Cc1cnn(C)c1-c1ccc(OC2CC3(CCN(CC4CC5C=CC4C5)CC3)C2)nn1 (stereo not shown) [Compound 32, 7-(5-bicyclo[2.2.1]hept-2-enylmethyl)-2-[6-(2,4-dimethylpyrazol-3-yl)pyridazin-3-yl]oxy-7-azaspiro[3.5]nonane]	3.96%	160 nM
Cc1cnn(C)c1-c1ccc(OC2CC3(CCN(CC(C)C(C)(C)C)CC3)C2)nn1 (stereo not shown) [Compound 33, 2-[6-(2,4-dimethylpyrazol-3-yl)pyridazin-3-yl]oxy-7-(2,3,3-trimethylbutyl)-7-azaspiro[3.5]nonane]	3.87%	250 nM
Cc1cnn(C)c1-c1ccc(OC2CC3(CCN(CC4CCCCC4)CC3)C2)nn1 [Compound 34, 7-(cyclohexylmethyl)-2-[6-(2,4-dimethylpyrazol-3-yl)pyridazin-3-yl]oxy-7-azaspiro[3.5]nonane]	4.38%	850 nM
Cc1cnn(C)c1-c1ccc(OC2CC3(CCN(CC4CCOCC4)CC3)C2)nn1 [Compound 35, 2-[6-(2,4-dimethylpyrazol-3-yl)pyridazin-3-yl]oxy-7-(tetrahydropyran-4-ylmethyl)-7-azaspiro[3.5]nonane]	17.8%	6370 nM
Cc1cnn(C)c1-c1ccc(OC2CC3(CCN(CC4CCSCC4)CC3)C2)nn1 [Compound 36, 2-[6-(2,4-dimethylpyrazol-3-yl)pyridazin-3-yl]oxy-7-(tetrahydrothiopyran-4-ylmethyl)-7-azaspiro[3.5]nonane]	4.76%	1210 nM
Cc1cnn(C)c1-c1ccc(OC2CC3(CCN(Cc4ccccc4)CC3)C2)nn1 [Compound 37, 7-benzyl-2-[6-(2,4-dimethylpyrazol-3-yl)pyridazin-3-yl]oxy-7-azaspiro[3.5]nonane]	10.8%	3450 nM
Cc1cccnc1CN1CCC2(CC1)CC(Oc1ccc(-c3c(C)cnn3C)nn1)C2 [Compound 38, 2-[6-(2,4-dimethylpyrazol-3-yl)pyridazin-3-yl]oxy-7-[(3-methyl-2-pyridyl)methyl]-7-azaspiro[3.5]nonane]	14.8%	7720 nM
Cc1nn(C)cc1-c1ccc(NCC2CC3(CCN(CCC(C)(C)C)CC3)C2)nn1 [Compound 39, N-[[7-(3,3-Dimethylbutyl)-7-azaspiro[3.5]nonan-2-yl]methyl]-6-(1,3-dimethylpyrazol-4-yl)pyridazin-3-amine]	4.55%	220 nM
Fc1ccc(Cl)c(-c2ccc(NCC3CC4(CCN(CC5CC6C=CC5C6)CC4)C3)nn2)c1 (stereo not shown) [Compound 40, N-[[7-(5-bicyclo[2.2.1]hept-2-enylmethyl)-7-azaspiro[3.5]nonan-2-yl]methyl]-6-(2-chloro-5-fluoro-phenyl)pyridazin-3-amine]	2.63%	240 nM
CC(C)(C)CCN1CCC2(CC1)CC(CNc1ccc(-c3cc(F)ccc3Cl)nn1)C2 [Compound 41, 6-(2-chloro-5-fluoro-phenyl)-N-[[7-(3,3-dimethylbutyl)-7-azaspiro[3.5]nonan-2-yl]methyl]pyridazin-3-amine]	2.42%	470 nM
Fc1ccc(Cl)c(-c2ccc(NCC3CC4(CCN(CC5CCCCC5)CC4)C3)nn2)c1 [Compound 42, 6-(2-chloro-5-fluoro-phenyl)-N-[[7-(cyclohexylmethyl)-7-azaspiro[3.5]nonan-2-yl]methyl]pyridazin-3-amine]	6.27%	3140 nM
Fc1ccc(Cl)c(-c2ccc(NCC3CC4(CCN(CC5CCCOC5)CC4)C3)nn2)c1 (stereo not shown) [Compound 43, 6-(2-chloro-5-fluoro-phenyl)-N-[[7-(tetrahydropyran-3-ylmethyl)-7-azaspiro[3.5]nonan-2-yl]methyl]pyridazin-3-amine]	5.29%	2280 nM
Fc1ccc(Cl)c(-c2ccc(NCC3CC4(CCN(CC5CCOCC5)CC4)C3)nn2)c1 [Compound 44, 6-(2-chloro-5-fluoro-phenyl)-N-[[7-(tetrahydropyran-4-ylmethyl)-7-azaspiro[3.5]nonan-2-yl]methyl]pyridazin-3-amine]	4.66%	730 nM
Fc1ccc(Cl)c(-c2ccc(NCC3CC4(CCN(Cc5ccccc5)CC4)C3)nn2)c1 [Compound 45, N-[(7-benzyl-7-azaspiro[3.5]nonan-2-yl)methyl]-6-(2-chloro-5-fluoro-phenyl)pyridazin-3-amine]	5.72%	1340 nM
Fc1ccc(Cl)c(-c2ccc(NCC3CC4(CCN(Cc5ccccc5F)CC4)C3)nn2)c1 [Compound 46, 6-(2-chloro-5-fluoro-phenyl)-N-[[7-[(2-fluorophenyl)methyl]-7-azaspiro[3.5]nonan-2-yl]methyl]pyridazin-3-amine]	9.19%	780 nM
